{
  "source": "patent US8012956B2",
  "about": "“Tropane compounds” (Exelixis, Inc., priority 2007, dated 2011)",
  "molecular_target": "HSP90 (Homo sapiens, UniProt P07900)",
  "experiment": "HSP90 inhibition (HSP90 IC50)",
  "type": "biochemical",
  "data": [
    {"smiles": "CN1CCN(c2ccc(CNC(=O)c3ccc(N4[C@@H]5CC[C@H]4C[C@@H](NC(=O)c4ccc(C(N)=O)cc4)C5)nc3)cc2)CC1", "note": "[N-(8-{5-[({[4-(4-methylpiperazin-1-yl)phenyl]methyl}amino)carbonyl]pyridin-2-yl}-8-azabicyclo[3.2.1]oct-3-endo-yl)benzene-1,4-dicarboxamide]", "values": [
      {"measurement": "IC50", "result": "< 500", "unit": "nM"}
    ]},
    {"smiles": "COc1cccc(C(=O)N[C@H]2C[C@H]3CC[C@@H](C2)N3c2ccc(C(=O)NCC3CC3)cn2)c1C", "note": "[N-(cyclopropylmethyl)-6-[3-endo-({[2-methyl-3-(methyloxy)phenyl]carbonyl}amino)-8-azabicyclo[3.2.1]oct-8-yl]pyridine-3-carboxamide]", "values": [
      {"measurement": "IC50", "result": "500 to 999", "unit": "nM"}
    ]},
    {"smiles": "COc1cccc(C(=O)N[C@H]2C[C@H]3CC[C@@H](C2)N3c2ccc(C(=O)NCc3ccco3)cn2)c1C", "note": "[N-(furan-2-ylmethyl)-6-[3-endo-({[2-methyl-3-(methyloxy)phenyl]carbonyl}amino)-8-azabicyclo[3.2.1]oct-8-yl]pyridine-3-carboxamide]", "values": [
      {"measurement": "IC50", "result": "< 500", "unit": "nM"}
    ]},
    {"smiles": "COc1cccc(C(=O)NC2CC3CCC(C2)N3c2ccc(C(=O)NC(C)c3c(F)cc(C4CCNCC4)cc3F)cn2)c1C", "note": "(stereo not drawn) [N-[1-(2,6-difluoro-4-piperidin-4-ylphenyl)ethyl]-6-[3-endo-({[2-methyl-3-(methyloxy)phenyl]carbonyl}amino)-8-azabicyclo[3.2.1]oct-8-yl]pyridine-3-carboxamide]", "values": [
      {"measurement": "IC50", "result": "2000 to 10000", "unit": "nM"}
    ]},
    {"smiles": "COc1cccc(C(=O)NC2CC3CCC(C2)N3c2ccc(C(=O)NC(C)c3ccc(C4CCNCC4)cc3F)cn2)c1C", "note": "(stereo not drawn) [N-[1-(2-fluoro-4-piperidin-4-ylphenyl)ethyl]-6-[3-endo-({[2-methyl-3-(methyloxy)phenyl]carbonyl}amino)-8-azabicyclo[3.2.1]oct-8-yl]pyridine-3-carboxamide]", "values": [
      {"measurement": "IC50", "result": "< 500", "unit": "nM"}
    ]},
    {"smiles": "COc1cccc(C(=O)NC2CC3CCC(C2)N3c2ccc(C(=O)NC(C)c3ccc(Br)cc3F)cn2)c1C", "note": "(stereo not drawn) [N-[1-(4-bromo-2-fluorophenyl)ethyl]-6-[3-endo-({[2-methyl-3-(methyloxy)phenyl]carbonyl}amino)-8-azabicyclo[3.2.1]oct-8-yl]pyridine-3-carboxamide]", "values": [
      {"measurement": "IC50", "result": "2000 to 10000", "unit": "nM"}
    ]},
    {"smiles": "COc1cccc(C(=O)NC2CC3CCC(C2)N3c2ccc(C(=O)NC(C)c3ccc(Cl)cc3)cn2)c1C", "note": "(stereo not drawn) [N-[1-(4-chlorophenyl)ethyl]-6-[3-endo-({[2-methyl-3-(methyloxy)phenyl]carbonyl}amino)-8-azabicyclo[3.2.1]oct-8-yl]pyridine-3-carboxamide]", "values": [
      {"measurement": "IC50", "result": "< 500", "unit": "nM"}
    ]},
    {"smiles": "CCN(CC)CCNC(=O)c1ccc(N2[C@@H]3CC[C@H]2C[C@@H](NC(=O)c2cccc(OC)c2C)C3)nc1", "note": "[N-[2-(diethylamino)ethyl]-6-[3-endo-({[2-methyl-3-(methyloxy)phenyl]carbonyl}amino)-8-azabicyclo[3.2.1]oct-8-yl]pyridine-3-carboxamide]", "values": [
      {"measurement": "IC50", "result": "500 to 999", "unit": "nM"}
    ]},
    {"smiles": "COc1cccc(C(=O)N[C@H]2C[C@H]3CC[C@@H](C2)N3c2ccc(C(=O)NCCN(C)C)cn2)c1C", "note": "[N-[2-(dimethylamino)ethyl]-6-[3-endo-({[2-methyl-3-(methyloxy)phenyl]carbonyl}amino)-8-azabicyclo[3.2.1]oct-8-yl]pyridine-3-carboxamide]", "values": [
      {"measurement": "IC50", "result": "1000 to 2000", "unit": "nM"}
    ]},
    {"smiles": "COc1cccc(C(=O)N[C@H]2C[C@H]3CC[C@@H](C2)N3c2ccc(C(=O)NCCCn3ccnc3)cn2)c1C", "note": "[N-[3-(1H-imidazol-1-yl)propyl]-6-[3-endo-({[2-methyl-3-(methyloxy)phenyl]carbonyl}amino)-8-azabicyclo[3.2.1]oct-8-yl]pyridine-3-carboxamide]", "values": [
      {"measurement": "IC50", "result": "< 500", "unit": "nM"}
    ]},
    {"smiles": "CCN(CC)CCCNC(=O)c1ccc(N2[C@@H]3CC[C@H]2C[C@@H](NC(=O)c2cccc(OC)c2C)C3)nc1", "note": "[N-[3-(diethylamino)propyl]-6-[3-endo-({[2-methyl-3-(methyloxy)phenyl]carbonyl}amino)-8-azabicyclo[3.2.1]oct-8-yl]pyridine-3-carboxamide]", "values": [
      {"measurement": "IC50", "result": "500 to 999", "unit": "nM"}
    ]},
    {"smiles": "COc1cccc(C(=O)N[C@H]2C[C@H]3CC[C@@H](C2)N3c2ccc(C(=O)NCCCN(C)C)cn2)c1C", "note": "[N-[3-(dimethylamino)propyl]-6-[3-endo-({[2-methyl-3-(methyloxy)phenyl]carbonyl}amino)-8-azabicyclo[3.2.1]oct-8-yl]pyridine-3-carboxamide]", "values": [
      {"measurement": "IC50", "result": "500 to 999", "unit": "nM"}
    ]},
    {"smiles": "CCOCCCNC(=O)c1ccc(N2[C@@H]3CC[C@H]2C[C@@H](NC(=O)c2cccc(OC)c2C)C3)nc1", "note": "[N-[3-(ethyloxy)propyl]-6-[3-endo-({[2-methyl-3-(methyloxy)phenyl]carbonyl}amino)-8-azabicyclo[3.2.1]oct-8-yl]pyridine-3-carboxamide]", "values": [
      {"measurement": "IC50", "result": "1000 to 2000", "unit": "nM"}
    ]},
    {"smiles": "COc1cccc(C(=O)N[C@H]2C[C@H]3CC[C@@H](C2)N3c2ccc(C(=O)NCCCC(OC)OC)cn2)c1C", "note": "[N-[4,4-bis(methyloxy)butyl]-6-[3-endo-({[2-methyl-3-(methyloxy)phenyl]carbonyl}amino)-8-azabicyclo[3.2.1]oct-8-yl]pyridine-3-carboxamide]", "values": [
      {"measurement": "IC50", "result": "1000 to 2000", "unit": "nM"}
    ]},
    {"smiles": "CC(=O)c1ccc(N2[C@@H]3CC[C@H]2C[C@@H](NC(=O)c2cc(C)c(C(N)=O)cc2C)C3)nc1", "note": "[N-[8-(5-acetylpyridin-2-yl)-8-azabicyclo[3.2.1]oct-3-endo-yl]-2,5-dimethylbenzene-1,4-dicarboxamide]", "values": [
      {"measurement": "IC50", "result": "< 500", "unit": "nM"}
    ]},
    {"smiles": "CCCCCNc1cc(C(=O)N[C@H]2C[C@H]3CC[C@@H](C2)N3c2ccc(C(C)=O)cn2)c(C)cc1C(N)=O", "note": "[N-[8-(5-acetylpyridin-2-yl)-8-azabicyclo[3.2.1]oct-3-endo-yl]-2-methyl-5-(pentylamino)benzene-1,4-dicarboxamide]", "values": [
      {"measurement": "IC50", "result": "< 500", "unit": "nM"}
    ]},
    {"smiles": "CC(=O)c1ccc(N2[C@@H]3CC[C@H]2C[C@@H](NC(=O)c2cc(NC4CCC(C(F)(F)F)CC4)c(C(N)=O)cc2C)C3)nc1", "note": "(stereo partly drawn) [N-[8-(5-acetylpyridin-2-yl)-8-azabicyclo[3.2.1]oct-3-endo-yl]-2-methyl-5-{[4-(trifluoromethyl)cyclohexyl]amino} benzene-1,4-dicarboxamide]", "values": [
      {"measurement": "IC50", "result": "< 500", "unit": "nM"}
    ]},
    {"smiles": "CCC(CC)Nc1cc(C(=O)N[C@H]2C[C@H]3CC[C@@H](C2)N3c2ccc(C(C)=O)cn2)c(F)cc1C(N)=O", "note": "[N-[8-(5-acetylpyridin-2-yl)-8-azabicyclo[3.2.1]oct-3-endo-yl]-5-[(1-ethylpropyl)amino]-2-fluorobenzene-1,4-dicarboxamide]", "values": [
      {"measurement": "IC50", "result": "< 500", "unit": "nM"}
    ]},
    {"smiles": "CC(=O)c1ccc(N2C3CCC2CC(NC(=O)c2cc(N[C@H]4CC[C@H](O)CC4)c(C(N)=O)cc2C)C3)nc1", "note": "(stereo partly drawn) [N-[8-(5-acetylpyridin-2-yl)-8-azabicyclo[3.2.1]oct-3-endo-yl]-5-[(trans-4-hydroxycyclohexyl)amino]-2-methylbenzene-1,4-dicarboxamide]", "values": [
      {"measurement": "IC50", "result": "< 500", "unit": "nM"}
    ]},
    {"smiles": "CCN1CC(NC(=O)c2ccc(N3[C@@H]4CC[C@H]3C[C@@H](NC(=O)c3cc(C)c(C(N)=O)cc3C)C4)nc2)C1", "note": "[N-[8-(5-{[(1-ethylazetidin-3-yl)amino]carbonyl}pyridin-2-yl)-8-azabicyclo[3.2.1]oct-3-endo-yl]-2,5-dimethylbenzene-1,4-dicarboxamide]", "values": [
      {"measurement": "IC50", "result": "< 500", "unit": "nM"}
    ]},
    {"smiles": "CCN1CCC(NC(=O)c2ccc(N3[C@@H]4CC[C@H]3C[C@@H](NC(=O)c3cc(C)c(C(N)=O)cc3C)C4)nc2)CC1", "note": "[N-[8-(5-{[(1-ethylpiperidin-4-yl)amino]carbonyl}pyridin-2-yl)-8-azabicyclo[3.2.1]oct-3-endo-yl]-2,5-dimethylbenzene-1,4-dicarboxamide]", "values": [
      {"measurement": "IC50", "result": "500 to 999", "unit": "nM"}
    ]},
    {"smiles": "NC(=O)c1ccc(C(=O)N[C@H]2C[C@H]3CC[C@@H](C2)N3c2ccc(C(=O)NCc3ccccc3)cn2)cc1", "note": "[N-[8-(5-{[(phenylmethyl)amino]carbonyl}pyridin-2-yl)-8-azabicyclo[3.2.1]oct-3-endo-yl]benzene-1,4-dicarboxamide]", "values": [
      {"measurement": "IC50", "result": "< 500", "unit": "nM"}
    ]},
    {"smiles": "NC(=O)c1ccc(C(=O)N[C@H]2C[C@H]3CC[C@@H](C2)N3c2ccc(C(=O)NCc3cccnc3)cn2)cc1", "note": "[N-[8-(5-{[(pyridin-3-ylmethyl)amino]carbonyl}pyridin-2-yl)-8-azabicyclo[3.2.1]oct-3-endo-yl]benzene-1,4-dicarboxamide]", "values": [
      {"measurement": "IC50", "result": "< 500", "unit": "nM"}
    ]},
    {"smiles": "COc1cccc(C(=O)NC2CC3CCC(C2)N3c2ccc(C(=O)N[C@H](C)C(C)C)cn2)c1C", "note": "(stereo partly drawn) [N-[(1R)-1,2-dimethylpropyl]-6-[3-endo-({[2-methyl-3-(methyloxy)phenyl]carbonyl}amino)-8-azabicyclo[3.2.1]oct-8-yl]pyridine-3-carboxamide]", "values": [
      {"measurement": "IC50", "result": "2000 to 10000", "unit": "nM"}
    ]},
    {"smiles": "COc1cccc(C(=O)NC2CC3CCC(C2)N3c2ccc(C(=O)N[C@@H]3CC4CCC3C4)cn2)c1C", "note": "(stereo partly drawn) [N-[(1R,2R,4S)-bicyclo[2.2.1]hept-2-yl]-6-[3-endo-({[2-methyl-3-(methyloxy)phenyl]carbonyl}amino)-8-azabicyclo[3.2.1]oct-8-yl]pyridine-3-carboxamide]", "values": [
      {"measurement": "IC50", "result": "1000 to 2000", "unit": "nM"}
    ]},
    {"smiles": "COc1cccc(C(=O)NC2CC3CCC(C2)N3c2ccc(C(=O)N[C@@H](C)C(C)C)cn2)c1C", "note": "(stereo partly drawn) [N-[(1S)-1,2-dimethylpropyl]-6-[3-endo-({[2-methyl-3-(methyloxy)phenyl]carbonyl}amino)-8-azabicyclo[3.2.1]oct-8-yl]pyridine-3-carboxamide]", "values": [
      {"measurement": "IC50", "result": "1000 to 2000", "unit": "nM"}
    ]},
    {"smiles": "COc1cccc(C(=O)NC2CC3CCC(C2)N3c2ccc(C(=O)N[C@@H](C)c3ccc(Cl)cc3)cn2)c1C", "note": "(stereo partly drawn) [N-[(1S)-1-(4-chlorophenyl)ethyl]-6-[3-endo-({[2-methyl-3-(methyloxy)phenyl]carbonyl}amino)-8-azabicyclo[3.2.1]oct-8-yl]pyridine-3-carboxamide]", "values": [
      {"measurement": "IC50", "result": "< 500", "unit": "nM"}
    ]},
    {"smiles": "CCN(CC)CCOc1ccc([C@H](C)NC(=O)c2ccc(N3C4CCC3CC(NC(=O)c3cccc(OC)c3C)C4)nc2)c(F)c1", "note": "(stereo partly drawn) [N-[(1S)-1-(4-{[2-(diethylamino)ethyl]oxy}-2-fluorophenyl)ethyl]-6-[3-endo-({[2-methyl-3-(methyloxy)phenyl]carbonyl}amino)-8-azabicyclo[3.2.1]oct-8-yl]pyridine-3-carboxamide]", "values": [
      {"measurement": "IC50", "result": "< 500", "unit": "nM"}
    ]},
    {"smiles": "CCN(CC)CCOc1ccc([C@H](C)NC(=O)c2ccc(N3C4CCC3CC(NC(=O)c3cccc(OC)c3C)C4)nc2)cc1", "note": "(stereo partly drawn) [N-[(1S)-1-(4-{[2-(diethylamino)ethyl]oxy}phenyl)ethyl]-6-[3-endo-({[2-methyl-3-(methyloxy)phenyl]carbonyl}amino)-8-azabicyclo[3.2.1]oct-8-yl]pyridine-3-carboxamide]", "values": [
      {"measurement": "IC50", "result": "< 500", "unit": "nM"}
    ]},
    {"smiles": "COC[C@H](C)NC(=O)c1ccc(N2C3CCC2CC(NC(=O)c2cccc(OC)c2C)C3)nc1", "note": "(stereo partly drawn) [N-[(1S)-1-methyl-2-(methyloxy)ethyl]-6-[3-endo-({[2-methyl-3-(methyloxy)phenyl]carbonyl}amino)-8-azabicyclo[3.2.1]oct-8-yl]pyridine-3-carboxamide]", "values": [
      {"measurement": "IC50", "result": "1000 to 2000", "unit": "nM"}
    ]}
  ]
}
